The results in this text go back to US10021880B2, “Diarylimidazole compound and harmful organism control agent” (Nippon Soda Co., Ltd., priority 2014, dated 2018).

The structures appear in SMILES notation.

One data set has as its system Pseudaletia separate. Kind of data set: Efficacy test against Pseudaletia separate (maize leaf dip). To be noted: foliar, 144 h, maize leaves soaked 30 seconds, second-instar larvae, after 6 days, 25° C., read-out: insect mortality rate against Pseudaletia separate. The class given is in vivo. As for the experimental part:
(§1) 5 parts of the compound of the present invention, 93.6 parts of dimethyl formamide and 1.4 parts of polyoxyethylene alkylaryl ether were mixed and dissolved to obtain emulsion (I) including 5% of active ingredient.
Emulsion (I) was diluted with water so that the concentration of the compound of the present invention reaches 125 ppm. Maize leaves were soaked in the diluted liquid for 30 seconds. Then the maize leaves were put on Petri dishes, followed by inoculating 5 second-instar larvae of Pseudaletia separate. The Petri dishes were placed in a temperature-controlled room with a temperature of 25° C. and humidity of 60%. Mortality was investigated after 6 days were passed, and the insect mortality rate was calculated. The test was repeated twice.

In another data set the test system is Spodoptera litura. Kind of data set: Efficacy test against Spodoptera litura (cabbage leaf dip). The conditions noted are these: foliar, 144 h, cabbage leaves soaked 30 seconds, second-instar larvae, after 6 days, 25° C., read-out: insect mortality rate against Spodoptera litura. The class given is in vivo. As for the experimental part: as §1
Emulation (I) was diluted with water so that the concentration of the compound of the present invention reaches 125 ppm. Cabbage leaves were soaked in the diluted liquid for 30 seconds. Then the cabbage leaves were put on Petri dishes, followed by inoculating 5 second-instar larvae of Spodoptera litura. The Petri dishes were placed in a temperature-controlled room with a temperature was 25° C. and humidity of 60%. Mortality was investigated after 6 days were passed, and the insect mortality rate was calculated. The test was repeated twice.

The next data set deals with Plutella xylostella. Put plainly: Efficacy test against Plutella xylostella (cabbage leaf dip). The class given is in vivo. The conditions noted are these: foliar, 72 h, cabbage leaves soaked 30 seconds, second-instar larvae, after 3 days, 25° C., read-out: mortality rate against Plutella xylostella. How it is done: as §1
Emulsion (I) was diluted with water so that the concentration of the compound of the present invention reaches 125 ppm. Cabbage leaves were soaked in the diluted liquid for 30 seconds. Then the cabbage leaves were put on Petri dishes, followed by inoculating 5 second-instar larvae of Plutella xylostella. The Petri dishes were placed in a temperature-controlled room with a temperature was 25° C. and humidity of 60%. Mortality was investigated after 3 days were passed, and the insect mortality rate was calculated. The test was repeated twice.

The subject of data set [1] is Aphis gossypii. Kind of data set: Efficacy test against Aphis gossypii (spray on cucumber seedlings). It counts as in vivo. To be noted: sprayed on cucumber seedlings inoculated with nymphs, 4 days after spraying, read-out: mortality rate against Aphis gossypii. How it is done: as §1
Cucumber plants were raised in No. 3 pots and the first true leaves were inoculated with nymphs of Aphis gossypii. Emulation (I) was diluted with water so that the concentration of the compound of the present invention reaches 125 ppm, followed by spraying the diluted liquid on the cucumber seedlings. The cucumber seedlings were then placed in a temperature-controlled room with a temperature of 25° C. and humidity of 60%. Mortality was investigated after 4 days were passed from the spraying, and the insect mortality rate of Aphis gossypii was calculated. The test was repeated twice.

For the next data set, the system named is Tetranychus kanzawai. Put plainly: Efficacy test against Tetranychus kanzawai (spray on kidney bean seedlings). It counts as in vivo. The conditions noted are these: 240 h, sprayed on kidney bean seedlings, adult mortality 10 days after spraying, 25° C., humidity 65%, read-out: mortality rate against Tetranychus kanzawai. As for the experimental part:
as §1
Kidney bean plants were raised in No. 3 pots and the primary leaves were inoculated with 10 adult female Tetranychus kanzawai. Emulation (I) was diluted with water so that the concentration of the compound of the present invention reaches 125 ppm, followed by spraying the diluted liquid on the kidney bean seedlings. The kidney bean seedlings were then placed in a temperature-controlled room with a temperature of 25° C. and humidity of 65%. Mortality of the adult Tetranychus kanzawai was investigated after 10 days were passed from the spraying, and the insect mortality rate of Tetranychus kanzawai was calculated. The test was repeated twice.

In another data set the test system is Musca domestica. Kind of data set: Efficacy test against Musca domestica (treated cube sugar). The class given is in vivo. To be noted: 100 ppm on cube sugar, after 24 hours, 25° C. How it is done: The compound of the present invention was diluted with acetone, followed by dropping to 1 g of cube sugar so that the concentration reaches to 100 ppm. The cube sugar was placed in a plastic cup and 10 adult female Musca domestica were released therein, followed by putting the lid on the cup. The cup was kept at 25° C., the mortality was investigated after 24 hours was passed from the releasing of Musca domestica and the insect mortality rate was calculated by the following equation. The test was repeated twice. Insect mortality rate (%)=(number of dead insects/number of sample insects)×100

In the next data set the test system is Culex pipiens. Kind of data set: Efficacy test against Culex pipiens (larvae in chemical solution). It counts as in vivo. To be noted: 2 ppm in water, after 1 day. As for the experimental part:
as §1
Emulsion (I) was diluted with water so that the concentration of the compound of the present invention reaches 2 ppm to prepare a chemical solution for test. 20 first-instar larvae of Culex pipiens were released into 100 ml of the chemical solution for test, then the number of dead insects was calculated after 1 day was passed, and the insect mortality rate was calculated by the following equation. The test was repeated twice. Insect mortality rate (%)=(number of dead insects/number of sample insects)×100

The subject of data set [2] is Aphis gossypii. Kind of data set: Efficacy test against Aphis gossypii (root-dipping test). To be noted: 8 ppm in hydroponic liquid, cucumber, nymphs, after 6 days. The class given is in vivo.
Source text: as §1
Cucumber plants raised in No. 3 pots were pulled out from the pots, then the soil attached to the roots was washed with tap water, followed by hydroponic-cultivating the cucumber plants by soaking the roots in tap water. The cucumber seedlings were inoculated with nymphs of Aphis gossypii. Emulsion (I) was diluted with water to obtain a diluted liquid with a concentration of 8 ppm of the compound of the present invention. The tap water was replaced with the diluted liquid, and then the hydrophonic-cultivation was continued in a temperature-controlled room with a temperature was 25° C. and humidity of 60%.
After 6 days were passed from the hydrophonic-cultivation in the diluted liquid, mortality of Aphis gossypii was investigated and the insect mortality rate was calculated. The test was repeated twice.

In the case of `Cn1c(-c2ccc(C(F)(F)F)cc2)c[n+]([O-])c1-c1ccc(C(F)(F)F)cc1F`, the melting point lay in the range of 229 to 231 °C.

Turning to `CCS(=O)(=O)c1cc(C(F)(F)F)ccc1-c1ncc(-c2ccc(C(F)(F)F)cc2)n1C` [Compound 1-3, 2-(2-(ethylsulfonyl)-4-(trifluoromethyl)phenyl)-1-methyl-5-(4-(trifluoromethyl)phenyl)-1H-imidazole], the mortality at 125 ppm with Pseudaletia separate, in the data set with Spodoptera litura, in the data set on Plutella xylostella and in the data set with Aphis gossypii [1] was no less than 80% in each case.

Take `Cn1c(-c2ccc(C(F)(F)F)cc2)cnc1-c1ccc(C(F)(F)F)cc1F` [Compound 1-4, 2-(2-fluoro-4-(trifluoromethyl)phenyl)-1-methyl-5-(4-(trifluoromethyl)phenyl)-1H-imidazole]: the mortality at 125 ppm in the data set with Tetranychus kanzawai is no less than 90%.

For the compound `CCSc1cc(C(F)(F)F)ccc1-c1ncc(-c2ccc(C(F)(F)F)cc2)n1C` [Compound 1-7, 2-(2-(ethylsulfanyl)-4-(trifluoromethyl)phenyl)-1-methyl-5-(4-(trifluoromethyl)phenyl)-1H-imidazole], the mortality at 125 ppm with Pseudaletia separate, in the data set on Spodoptera litura and in the data set on Plutella xylostella was no less than 80% each time.

As to `CCS(=O)(=O)c1cc(C(F)(F)F)ccc1-c1ncc(-c2ccc(OC(F)(F)F)cc2)n1C` [Compound 1-35], the “insect mortality rate against the adult female Musca domestica” value with Musca domestica came to 100%. The “insect mortality rate against the first-instar larvae of Culex pipiens” value in the data set with Culex pipiens is listed as 100%.

Consider `CCS(=O)(=O)c1cnccc1-c1ncc(-c2ccc(C(F)(F)F)cc2)n1C` [Compound 3-1], for which, in the data set with Aphis gossypii [2], the “insect mortality rate (Aphis gossypii, root-dipping test)” value is given as no less than 80%.

The melting point is the temperature, or range, at which the solid turns liquid. Usually mortality stands for the percentage killed.
